Data published in PMC5701182, “The Aβ oligomer eliminating D-enantiomeric peptide RD2 improves cognition without changing plaque pathology” (Scientific Reports, 2017).
pIC50: −log10 of the molar value. Non-standard residues stand in square brackets, D forms with d. Residues, ends and D or L forms follow the SMILES beside them.

Columns and labels:
[1] = molecular target: T1, Aβ(1-42) oligomers (Homo sapiens, UniProt P05067); assay: QIAD assay (quantitative determination of interference with Aβ aggregate size distribution); format: biochemical
T1 construct: Synthetic and recombinant Aβ(1-42) with >95% purity was purchased as lyophilized powder; purchased Bachem (Germany) (synthetic) / Isoloid (Germany) (recombinant)
Experimental: For the evaluation of Aβ oligomer elimination of RD2, a QIAD assay (quantitative determination of interference with Aβ aggregate size distribution) was performed according to Brener et al.[23]. Briefly, 80 µM Aβ(1-42) was pre-incubated for 4.5 h to enrich Aβ oligomers. Then either RD2 or D3 were added to the pre-incubated solution with the resulting concentration of 20 µM RD2 or D3 and co-incubated for further 40 min. The samples were loaded on top of a density gradient containing 5 to 50% (w/v) iodixanol (OptiPrep, Axis-Shield, Norway) and centrifuged for 3 h at 4 °C and 259.000 × g (Optima TL-100, Beckman Coulter, USA). After centrifugation, 14 fractions à 140 μl were harvested by upward displacement. Fraction 1 from the top of the gradient was the least dense fraction while fraction 14 from just above the bottom was the densest fraction. The pellet of each tube was mixed with 60 µl of a 6 M guanidine hydrochloride solution and boiled for 10 min. The resulting solution represents fraction 15. All fractions were analysed with respect to their Aβ(1-42) content by analytical RP-HPLC (reversed phase-high performance liquid chromatography) and UV absorbance detection at 214 nm. The data for the D3 values and the Aβ(1-42) controls without compounds were already previously used in Brener et al.[23]. Analyses were done at least in quadruplicates (D3 and RD2 n = 4, Aβ(1-42) n = 11). […]

[2] = molecular target: T2, Aβ(1-42) fibril formation (Homo sapiens, UniProt P05067); assay: Thioflavin T (ThT) fibril formation assay; format: biochemical; settings: 20 µM Aβ(1-42), 5 µM ThT, RD2 80-1.25 µM, 21 h, 37 °C; logistic fit; three replicates; read-out: IC50 of inhibition of Aβ(1-42) fibril formation
T2 construct: Synthetic and recombinant Aβ(1-42) with >95% purity was purchased as lyophilized powder; purchased Bachem (Germany) (synthetic) / Isoloid (Germany) (recombinant)
Experimental: The Thioflavin T (ThT) assay is a commonly used assay to visualize and quantify the fibrilisation of Aβ, since this dye binds to amyloidogenic cross-β-sheet structures. While Aβ aggregates into fibrils, the ThT fluorescence intensities increase until a saturation level is accomplished. Within this test, we analysed the inhibitory function of RD2 on the Aβ(1-42) fibril formation. 20 µM Aβ(1-42) was incubated with 5 µM ThT and different concentrations of RD2 (serial dilution from 80 µM till 1.25 µM) for IC50 calculation. ThT fluorescence was monitored over 21 h every 5 min at λex = 440 nm and λem = 490 nm in a fluorescence plate reader (Polarstar Optima, Germany) at 37 °C. Correction was done using all supplements without Aβ. For data evaluation, the fibril masses were determined by subtracting the baseline fluorescence intensities from the top and normalised to the Aβ control to calculate the inhibition in percent. The IC50 resulted from the compound concentration at the inflection point obtained by a logistic fit of the data (OriginPro 8.5 G, OriginLab, USA).

[3] = tested on: PC-12 cells; assay: MTT cell viability assay, PC-12 cells; format: cell-based, rat; settings: 5 µM RD2 without Aβ, one-way ANOVA n.s., p = 0.4
Experimental: (§1) MTT (3-(4,5-Dimethylthiazol-2-yl)-2,5-diphenyl-tetrazolium bromide) based cell viability assays were accomplished to examine the cytotoxicity of Aβ(1-42) in the presence of RD2 on two different cell lines, PC-12 (rat pheochromocytoma cell line), and SH-SY5Y (human neuroblastoma cell line) cells.
(§2) PC-12 cells (DSMZ, Germany) were cultured in DMEM medium supplemented with 10% fetal calf serum, 1% antibiotics (Penicillin/Streptomycin) (all Sigma-Aldrich, USA), and 5% horse serum (PAA Laboratories GmbH, Germany) on collagen A-coated (Biochrom GmbH, Germany) tissue culture flasks (SPL Life Sciences Co., Korea). SH-SY5Y cells (DSMZ, Germany) were cultured in DMEM medium supplemented with 20% fetal calf serum and 1% antibiotics (Penicillin/Streptomycin) (all Sigma-Aldrich, USA) on tissue culture flasks (SPL Life Sciences Co., Korea). Cells were allowed to grow in a humidified incubator with 5% CO2 at 37 °C and a maximum of 12 (PC-12 cells) or 21 (SH-SY5Y cells) passages. Medium was changed every two days and cells were passaged every three to five days, according to their confluence.
(§3) MTT test was performed according to the manufacturer’s protocol (CellProliferation Kit I; Roche, Switzerland). […] The arithmetic mean of all measurements per approach was calculated. Results are represented as the percentage of MTT reduction, assuming that the absorbance of control cells was 100%.

[4] = tested on: SH-SY5Y cells; assay: MTT cell viability assay, SH-SY5Y cells; format: cell-based, human; settings: 5 µM RD2 without Aβ, one-way ANOVA n.s., p = 0.4
Experimental: as §1, §2, §3

[5] = tested on: APP/PS1 mice; assay: Body weight and general health during intraperitoneal minipump treatment; format: in vivo, mouse; settings: female APP/PS1 mice, 5.3 mg/kg/day RD2 i.p. by Alzet minipump
Experimental: For this study, 21 APP/PS1 double transgenic mice (APPSwedish/PS1ΔE9)[36] were used. The very well characterized APP/PS1 mouse model develops cognition deficits and abundant Aβ deposits already at early age. The original mice were purchased from JAX (The Jackson Laboratory, USA) and maintained in our own colony at the University of Alabama in Birmingham. Before treatment, the mice were housed in a controlled environment (humidity 50–60%, temperature 22 °C, light from 06:00 a.m. to 6:00 p.m.) with 4 animals per cage in our facility with food and water available ad libitum. After the implantation of the Alzet minipumps the mice were housed individually.
In this study, we treated seven months old female APP/PS1 mice intraperitoneally by use of Alzet osmotic minipumps (Alzet osmotic mini pumps, model #1004, Alzet, USA). Mice were either treated with 5.3 mg/kg/day RD2 (n = 11) or placebo (0.9% sodium chloride solution) (n = 10) as control group. The Alzet minipumps were soaked in sterile 0.9% sodium chloride solution for 24 h before implantation. The next day, the pumps were filled with the appropriate solution and implanted intraperitoneally. In short, mice were anesthetised with isoflurane, the skin and the muscle layer below were cut in the midline and the pump was inserted in the abdominal cavity. Following placement of the pump, the wound was sutured. […]

[6] = tested on: APP/PS1 mice; assay: Open field test; format: in vivo, mouse; settings: APP/PS1 mice after three weeks of 5.3 mg/kg/day RD2 i.p.
Experimental: (§4) In this study, we treated seven months old female APP/PS1 mice intraperitoneally by use of Alzet osmotic minipumps (Alzet osmotic mini pumps, model #1004, Alzet, USA). Mice were either treated with 5.3 mg/kg/day RD2 (n = 11) or placebo (0.9% sodium chloride solution) (n = 10) as control group. The Alzet minipumps were soaked in sterile 0.9% sodium chloride solution for 24 h before implantation. The next day, the pumps were filled with the appropriate solution and implanted intraperitoneally. In short, mice were anesthetised with isoflurane, the skin and the muscle layer below were cut in the midline and the pump was inserted in the abdominal cavity. Following placement of the pump, the wound was sutured. Three weeks after the implantations, the mice were tested in different behavioural set ups. 28 days after the implantations, the mice were sacrificed for histopathological analysis. All mice of both groups were included in the experiments described below.
The open field test was performed to evaluate the activity and anxiety behaviour of the mice. The arena (42 cm × 42 cm surrounded with clear Plexiglass sides (20 cm high)) was subdivided into two areas: border and centre. […] Time spent in both areas was analysed. After each testing day and in between the mice, the apparatus was wiped out with chlorhexidine and 70% ethanol and allowed to air-dry.

[7] = tested on: APP/PS1 mice; assay: Zero maze; format: in vivo, mouse; settings: APP/PS1 mice after three weeks of 5.3 mg/kg/day RD2 i.p., mean ± SEM, placebo 5.0 ± 0.6
Experimental: as §4
Similar to the open field test, the zero maze was used to assess the anxiety behaviour of the mice. The maze consisted of a circular arena (65 cm diameter) that is raised 40 cm above the table. The maze was separated into four equal parts, with two parts with 15 cm high walls of opaque material and two only 0.5 cm high walls. […] Analysed was the time mice spent in the open and closed arms. […]

[8] = tested on: APP/PS1 mice; assay: Morris water maze; format: in vivo, mouse; settings: 5.3 mg/kg/day RD2 i.p., placebo 19.0 ± 1 cm/s
Experimental: as §4
The mice were tested daily for one week in a water maze. Our version of the Morris water maze consists of a blue circular tank (120 cm diameter) filled with clear water (22 °C ± 1 °C). […] Mice were recorded with a camera driven tracker system (Ethovision XT10, Noldus, The Netherlands). It was analysed the time the mice needed to escape to the hidden platform (escape latency) and the time they spent in the target quadrant (probe trial).

[9] = previous pharmacokinetic studies of D3 and RD2; cited from earlier work
Excerpt: Nowadays, the inhibition of the formation of Aβ oligomers and the elimination of already present Aβ oligomers is thought to be one of the most promising strategies to modify disease progression according to the modified amyloid cascade hypothesis. Currently registered drugs can only ameliorate symptoms and cannot slow down disease progression. Previously, we have reported about a D-enantiomeric peptide, named “D3”, which was identified by mirror image phage display and solely consists of D-enantiomeric amino acid residues[21],[22]. D3 inhibits the formation of regular Aβ fibrils, eliminates di ...

T1 sequence (P05067 672-713 limits assumed): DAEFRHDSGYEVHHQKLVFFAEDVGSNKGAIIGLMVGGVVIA
T2 sequence (P05067 672-713 limits assumed): as above

CC(C)C[C@@H](NC(=O)[C@H](NC(=O)[C@H]1CCCN1)[C@H](C)O)C(=O)N[C@H](Cc1c[nH]cn1)C(=O)N[C@@H](C(=O)N[C@H](Cc1c[nH]cn1)C(=O)N[C@H](CC(N)=O)C(=O)N[C@H](CCCNC(=N)N)C(=O)N[C@H](CCCNC(=N)N)C(=O)N[C@H](CCCNC(=N)N)C(=O)N[C@H](CCCNC(=N)N)C(=O)N[C@H](CCCNC(=N)N)C(N)=O)[C@H](C)O [RD2] (H-[dP][dT][dL][dH][dT][dH][dN][dR][dR][dR][dR][dR]-NH2)
reduction of the amount of Aβ oligomers in fractions 4 to 6 ([1]; 20 µM RD2 added to 80 µM Aβ(1-42) pre-incubated 4.5 h, co-incubated 40 min, density gradient centrifugation, RP-HPLC UV 214 nm, n = 4): 71%
pIC50 ([1]; QIAD with pooled fractions 4 to 6, 1-40 µM RD2 on 80 µM Aβ(1-42), logistic fit, n = 3, read-out: IC50 of Aβ(1-42) oligomer elimination): 5.08
pIC50 [2]: 5.11
cell viability with RD2 alone compared to buffer control [3]: did not result in any change of cell viability
cell viability with RD2 alone compared to buffer control [4]: did not result in any change of cell viability
physiological parameters, general health and discomfort ([5]; 28 days): neither changed any obvious physiological parameters
body weight ([5]; n = 11, placebo 25.7 ± 0.9 g, mean ± SEM, SEM): 26.8 ± 0.8 g
speed in the open field ([6]; mean ± SEM, placebo 8.9 ± 0.9 cm/s, SEM): 8.8 ± 0.7 cm/s
activity or anxiety levels versus placebo ([6]; open field and zero maze tests): no significant differences in activity or anxiety levels
average speed of movement in the zero maze [7]: 4.8 ± 0.4 cm/s
swimming speed in the Morris water maze [8]: 18.8 ± 1 cm/s
bioavailability of RD2 compared to D3 [9]: higher bioavailability
